Among the data in patent US20240425464A1, “Substituted Monohydrazides as Potent Antifungal Agents” (University of Kentucky Research Foundation, priority 2023, published 2024) are MIC values, retold here.

In brackets after ≈: the same amount, converted by molar mass. Where two headings read alike, the source gives them in different places.

Test in all cases: MIC determination by in vitro antifungal assay
Common to all, as to assay type: cell-based, Candida auris

Experiment [1] has as its system C. auris strain AR Bank #390 (L). A digest of the protocol:
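Compounds serially double-diluted over 0.06-31.3 µg/mL against yeast inoculum set at OD600 0.12 (~1×10^6 CFU/mL) and diluted 1:100. Medium RPMI 1640 with 0.165 M MOPS, pH 7.0; growth at 35° C.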

Experiment [2] concerns C. auris AR Bank #381. The method, boiled down:
(§1)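 Inocula were prepared by adjusting actively growing yeast cultures in RPMI 1640 to an OD600 of 0.12, about 1×10^6 CFU/mL, and diluting this suspension 1:100. Cultivation was at 35° C in MOPS-buffered (0.165 M, pH 7.0) RPMI 1640.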

In experiment [3] the test system is C. auris AR Bank #387. The method, boiled down:
as §1

Experiment [4] relates to C. auris AR Bank #382. The method, boiled down: as §1
Experiment [5] concerns C. auris AR Bank #389. The method, boiled down:
as §1

For experiment [6], the system named is C. auris AR Bank #383. The method, boiled down:
as §1

Experiment [7] relates to C. auris AR Bank #388. The method, boiled down: as §1
The test system of experiment [8] is C. auris AR Bank #385. A digest of the protocol: as §1
In experiment [9] the test system is C. auris AR Bank #386. The method, boiled down:
as §1

[10] abbreviates: Candidozyma auris, C. auris AR Bank #390 (L), read-out: MIC.
[11] abbreviates: Candidozyma auris, strain L = C. auris AR Bank # 0390 (Tables 1A/1B), read-out: MIC.
Setting [12] is: Candidozyma auris, C. auris AR Bank #381, read-out: MIC.
The mark [13] stands for this setting: Candidozyma auris, C. auris AR Bank #387, read-out: MIC.
The mark [14] stands for this setting: Candidozyma auris, C. auris AR Bank #382, read-out: MIC.
[15] abbreviates: Candidozyma auris, C. auris AR Bank #389, read-out: MIC.
[16] abbreviates: Candidozyma auris, C. auris AR Bank #383, read-out: MIC.
[17] abbreviates: Candidozyma auris, C. auris AR Bank #388, read-out: MIC.
Setting [18] is: Candidozyma auris, C. auris AR Bank #385, read-out: MIC.
Where [19] appears, read: Candidozyma auris, C. auris AR Bank #386, read-out: MIC.
Setting [20] is: C. auris AR Bank # 390 (L) (Table 2B).
[21] abbreviates: strain L = C. auris AR Bank # 0390 (Tables 1A/1B).
Setting [22] is: C. auris AR Bank # 381 (Table 2B).
Setting [23] is: C. auris AR Bank # 387 (Table 2B).
Where [24] appears, read: C. auris AR Bank # 382 (Table 2B).
[25] abbreviates: C. auris AR Bank # 389 (Table 2B).
The mark [26] stands for this setting: C. auris AR Bank # 383 (Table 2B).
Setting [27] is: C. auris AR Bank # 388 (Table 2B).
The mark [28] stands for this setting: C. auris AR Bank # 385 (Table 2B).
Where [29] appears, read: C. auris AR Bank # 386 (Table 2B).

As for `COc1ccc(NNC(=O)c2cnccn2)cc1` [Compound 9f], the MIC in experiment [1] (setting [10]) came out at 0.98 µg/mL (≈ 4.01 µM); in experiment [1] (setting [11]), 0.49 µg/mL (≈ 2.01 µM); in experiment [2] (setting [12]) it was 1.95 µg/mL (≈ 7.98 µM); in experiment [3] (setting [13]), 1.95 µg/mL (≈ 7.98 µM); in experiment [4] (setting [14]), 0.98 µg/mL (≈ 4.01 µM); in experiment [5] (setting [15]) it was 0.98 µg/mL (≈ 4.01 µM). In addition, the MIC in experiment [6] (setting [16]) amounted to 0.98 µg/mL (≈ 4.01 µM); in experiment [7] (setting [17]), 0.98 µg/mL (≈ 4.01 µM); in experiment [8] (setting [18]), 0.98 µg/mL (≈ 4.01 µM); in experiment [9] (setting [19]), 0.49 µg/mL (≈ 2.01 µM).

On to `O=C(NNc1ccc(Cl)cc1)c1cccc(F)n1` [Compound 5e], for which the MIC in [1] (setting [20]), in experiment [1] (setting [21]), in experiment [2] (setting [22]), in experiment [3] (setting [23]), in experiment [4] (setting [24]) and in experiment [5] (setting [25]) was 7.8 μg/mL^−1 each time. In addition, the MIC in experiment [6] (setting [26]) amounted to 3.9 μg/mL^−1; in [7] (setting [27]), 7.8 μg/mL^−1; in experiment [8] (setting [28]), 3.9 μg/mL^−1; in experiment [9] (setting [29]), 7.8 μg/mL^−1.

Turning to `O=C(NNc1ccc(F)cc1)c1cccc(Br)n1` [Compound 6d], the MIC in experiment [1] (Candidozyma auris, C. auris AR Bank # 390 (L) (Table 2B), read-out: MIC) was 3.9 µg/mL (≈ 12.6 µM); in experiment [1] (setting [11]) it was 0.98 µg/mL (≈ 3.16 µM); in [2] (Candidozyma auris, C. auris AR Bank # 381 (Table 2B), read-out: MIC), 1.95 µg/mL (≈ 6.29 µM); in [3] (Candidozyma auris, C. auris AR Bank # 387 (Table 2B), read-out: MIC), 0.98 µg/mL (≈ 3.16 µM); in [4] (Candidozyma auris, C. auris AR Bank # 382 (Table 2B), read-out: MIC), 0.98 µg/mL (≈ 3.16 µM); in experiment [5] (Candidozyma auris, C. auris AR Bank # 389 (Table 2B), read-out: MIC), 1.95 µg/mL (≈ 6.29 µM). The MIC in experiment [6] (Candidozyma auris, C. auris AR Bank # 383 (Table 2B), read-out: MIC) is 1.95 µg/mL (≈ 6.29 µM); in [7] (Candidozyma auris, C. auris AR Bank # 388 (Table 2B), read-out: MIC) it was 0.98 µg/mL (≈ 3.16 µM); in experiment [8] (Candidozyma auris, C. auris AR Bank # 385 (Table 2B), read-out: MIC), 0.98 µg/mL (≈ 3.16 µM); in experiment [9] (Candidozyma auris, C. auris AR Bank # 386 (Table 2B), read-out: MIC) it was 1.95 µg/mL (≈ 6.29 µM).

Regarding `O=C(NNc1ccc(F)cc1F)c1ccccn1` [Compound 2g], the MIC in experiment [1] (setting [10]) amounted to 0.12 µg/mL (≈ 0.482 µM); in experiment [1] (setting [11]), 0.12 µg/mL (≈ 0.482 µM); in [2] (setting [12]) it was 0.49 µg/mL (≈ 1.97 µM); in [3] (setting [13]) it was 0.12 µg/mL (≈ 0.482 µM); in experiment [4] (setting [14]), 0.49 µg/mL (≈ 1.97 µM); in [5] (setting [15]), 0.24 µg/mL (≈ 0.963 µM). Besides, the MIC was 0.49 µg/mL (≈ 1.97 µM) in experiment [6] (setting [16]), 0.12 µg/mL (≈ 0.482 µM) in [7] (setting [17]), 0.49 µg/mL (≈ 1.97 µM) in experiment [8] (setting [18]) and 0.49 µg/mL (≈ 1.97 µM) in experiment [9] (setting [19]).

In the case of `O=C(NNc1ccc(F)cc1)c1ccc(F)cn1` [Compound 3d], the MIC in [1] (setting [20]) turned out to be 3.9 μg/mL^−1; in experiment [1] (setting [21]) it was 0.98 μg/mL^−1; in experiment [2] (setting [22]), 1.95 μg/mL^−1; in experiment [3] (setting [23]), 0.98 μg/mL^−1; in experiment [4] (setting [24]), 0.98 μg/mL^−1; in experiment [5] (setting [25]) it was 1.95 μg/mL^−1. The MIC in [6] (setting [26]) came to 1.95 μg/mL^−1; in [7] (setting [27]), 1.95 μg/mL^−1; in experiment [8] (setting [28]), 0.98 μg/mL^−1; in experiment [9] (setting [29]), 1.95 μg/mL^−1.

Regarding `O=C(NNc1cccc(Cl)c1)c1cnccn1` [Compound 9b], the MIC is 0.49 µg/mL (≈ 1.97 µM) in experiment [1] (setting [10]); 0.98 µg/mL (≈ 3.94 µM) in [1] (setting [11]); 0.49 µg/mL (≈ 1.97 µM) in experiment [2] (setting [12]); 0.24 µg/mL (≈ 0.965 µM) in experiment [3] (setting [13]); 0.12 µg/mL (≈ 0.483 µM) in [4] (setting [14]); 0.24 µg/mL (≈ 0.965 µM) in experiment [5] (setting [15]). Further, the MIC in experiment [6] (setting [16]) was 0.24 µg/mL (≈ 0.965 µM); in experiment [7] (setting [17]), 0.24 µg/mL (≈ 0.965 µM); in [8] (setting [18]) it was 0.24 µg/mL (≈ 0.965 µM); in [9] (setting [19]) it was not above 0.06 µg/mL.
